Reference: patent US20210238139A1, “MODULATORS OF TRYPTOPHAN CATABOLISM” (E-Therapeutics PLC, priority 2018, published 2021)

What follows are compounds tested on SK-OV-3 cells (assay: Effect of compounds on tryptophan catabolism in SK-OV-3 cell line (inhibition of kynurenine production, LC-MS/MS)). Conditions: Homo sapiens, SK-OV-3, 24 h, SK-OV-3 cell line, 24 h incubation, kynurenine in supernatant by LC-MS/MS; read-out: IC50 Ranges (ic50 values for inhibition of Kynurenine production).
Format: cell-based
Procedure: SK-OV-3 cells are seeded in 96-well plates in McCoy's 5A medium supplemented with 10% FBS and incubated overnight at 37° C., 5% CO2, 95% humidity. The […] growth medium is replaced with DMEM F-12 medium supplemented with 6 mg/mL L-tryptophan. Compounds are added to the wells and incubated for 24 h at 37° C., 5% CO2, 95% humidity. Compounds are tested at 8 consecutive 3-fold dilutions starting from 30 μM in duplicate. At the end of incubation, concentration of kynurenine in cell supernatants is […] determined by LC-MS/MS. In parallel, cell viability is assessed by measurement of ATP using CellTiter Glo assay (Promega), according to manufacturer's protocol. Inhibition of Kyn production is calculated using the following formula: […] IC50 ranges for compounds of the invention are presented in Table 2, whereby the IC50 ranges are as follows: • A: […]

Structure (SMILES) | IC50 [nM]
CC(c1cccc(C#N)c1)N(C(=O)Nc1ccc(Cl)cc1)C1CCCC1 (racemic) [Compound 173, 3-(4-chlorophenyl)-1-[1-(3-cyanophenyl)ethyl]-1-cyclopentyl-urea] | < 100
O=C(NCCc1ccccc1)N(Cc1cccs1)C1CCCC1 [Compound 1, 1-cyclopentyl-3-(2-phenylethyl)-1-(2-thienylmethyl)urea] | 1000 to 5000
O=C(Nc1ccccc1Cl)N(Cc1cccs1)C1CCCC1 [Compound 2, 3-(2-chlorophenyl)-1-cyclopentyl-1-(2-thienylmethyl)urea] | 1000 to 5000
O=C(Nc1ccc(F)c(F)c1)N(Cc1cccs1)C1CCCC1 [Compound 4, 1-cyclopentyl-3-(3,4-difluorophenyl)-1-(2-thienylmethyl)urea] | 500 to 1000
Cc1ccc(NC(=O)N(Cc2cccs2)C2CCCC2)c(C)c1 [Compound 5, 1-cyclopentyl-3-(2,4-dimethylphenyl)-1-(2-thienylmethyl)urea] | 1000 to 5000
N#CCc1ccc(NC(=O)N(Cc2cccs2)C2CCCC2)cc1 [Compound 6, 3-[4-(cyanomethyl)phenyl]-1-cyclopentyl-1-(2-thienylmethyl)urea] | 1000 to 5000
O=C(Nc1ccc2c(c1)OCO2)N(Cc1cccs1)C1CCCC1 [Compound 7, 3-(1,3-benzodioxol-5-yl)-1-cyclopentyl-1-(2-thienylmethyl)urea] | 1000 to 5000
O=C(NCc1ccc(F)cc1)N(Cc1cccs1)C1CCCC1 [Compound 8, 1-cyclopentyl-3-[(4-fluorophenyl)methyl]-1-(2-thienylmethyl)urea] | > 5000
O=C(Nc1ccc2c(c1)CCC2)N(Cc1cccs1)C1CCCC1 [Compound 9, 1-cyclopentyl-3-indan-5-yl-1-(2-thienylmethyl)urea] | 1000 to 5000
O=C(Nc1cc(Cl)nc(Cl)c1)N(Cc1cccs1)C1CCCC1 [Compound 10, 1-cyclopentyl-3-(2,6-dichloro-4-pyridyl)-1-(2-thienylmethyl)urea] | 1000 to 5000
O=C(Nc1ccncc1)N(Cc1cccs1)C1CCCC1 [Compound 11, 1-cyclopentyl-3-(4-pyridyl)-1-(2-thienylmethyl)urea] | 1000 to 5000
O=C(NC1CCCCC1)N(Cc1cccs1)C1CCCC1 [Compound 12, 3-cyclohexyl-1-cyclopentyl-1-(2-thienylmethyl) urea] | 1000 to 5000
O=C(Nc1ccc(C(F)(F)F)cc1)N(Cc1cccs1)C1CCCC1 [Compound 13, 1-cyclopentyl-1-(2-thienylmethyl)-3-[4-(trifluoromethyl)phenyl]urea] | 1000 to 5000
COc1ccc(NC(=O)N(Cc2cccs2)C2CCCC2)cc1 [Compound 14, 1-cyclopentyl-3-(4-methoxyphenyl)-1-(2-thienylmethyl)urea] | > 5000
C=CCNC(=O)N(Cc1cccs1)C1CCCC1 [Compound 15, 3-allyl-1-cyclopentyl-1-(2-thienylmethyl)urea] | 1000 to 5000
C#Cc1ccc(NC(=O)N(Cc2ccc(C)o2)C2CCCC2)nc1 [Compound 16, 1-cyclopentyl-3-(5-ethynyl-2-pyridyl)-1-[(5-methyl-2-furyl)methyl]urea] | 100 to 500
C#Cc1cnc(NC(=O)N(Cc2ccc(C)o2)C2CCCC2)nc1 [Compound 17, 1-cyclopentyl-3-(5-ethynylpyrimidin-2-yl)-1-[(5-methyl-2-furyl)methyl]urea] | 100 to 500
COc1ccc(NC(=O)N(Cc2cccs2)C2CCCC2)c(OC)c1 [Compound 18, 1-cyclopentyl-3-(2,4-dimethoxyphenyl)-1-(2-thienylmethyl)urea] | 1000 to 5000
O=C(NCCc1ccccc1)N(Cc1ccccn1)C1CCCCC1 [Compound 20, 1-cyclohexyl-3-(2-phenylethyl)-1-(2-pyridylmethyl)urea] | > 5000
CC(=O)c1ccc(NC(=O)N(Cc2cccs2)C2CCCC2)cc1 [Compound 22, 3-(4-acetylphenyl)-1-cyclopentyl-1-(2-thienylmethyl)urea] | > 5000
CN(C(=O)N(Cc1cccs1)C1CCCC1)c1ccccc1 [Compound 23, 1-cyclopentyl-3-methyl-3-phenyl-1-(2-thienylmethyl)urea] | > 5000
Cc1ccc(CN(C(=O)Nc2ccccc2)C2CCCC2)s1 [Compound 24, 1-cyclopentyl-1-[(5-methyl-2-thienyl)methyl]-3-phenyl-urea] | > 5000
CCc1ccc(NC(=O)N(Cc2ccc(C)s2)C2CCCC2)cc1 [Compound 25, 1-cyclopentyl-3-(4-ethylphenyl)-1-[(5-methyl-2-thienyl)methyl]urea] | 100 to 500

Other lines, results leading:

IC50 [nM] | Structure (SMILES)
100 to 500 | CC(c1ccccn1)N(C(=O)Nc1ccc(Cl)cc1)C1CCCC1 (racemic) [Compound 174, 3-(4-chlorophenyl)-1-cyclopentyl-1-[1-(2-pyridyl)ethyl]urea]
100 to 500 | CC(c1cccc(C#N)c1)N(C(=O)Nc1ccc(C#N)cc1)C1CCC1 (racemic) [Compound 184, 3-(4-cyanophenyl)-1-[1-(3-cyanophenyl)ethyl]-1-cyclobutyl-urea]
100 to 500 | CC(c1cccc(C#N)c1)N(C(=O)Nc1ccccc1)C1CCCC1 (racemic) [Compound 186, 1-[1-(3-cyanophenyl)ethyl]-1-cyclopentyl-3-phenyl-urea]
100 to 500 | CC(c1cccc(C#N)c1)N(C(=O)Nc1ccc(F)cc1)C1CCCC1 (racemic) [Compound 187, 1-[1-(3-cyanophenyl)ethyl]-1-cyclopentyl-3-(4-fluorophenyl)urea]
100 to 500 | CC(c1cccc(C#N)c1)N(C(=O)Nc1ccc(C#N)cc1)C1CCCC1 (racemic) [Compound 188, 3-(4-cyanophenyl)-1-[1-(3-cyanophenyl)ethyl]-1-cyclopentyl-urea]
100 to 500 | CC(c1cccc(C#N)c1)N(C(=O)Nc1ccc(F)cc1)C1CCC1 (racemic) [Compound 189, 1-[1-(3-cyanophenyl)ethyl]-1-cyclobutyl-3-(4-fluorophenyl)urea]
100 to 500 | Cc1ccc(C(C)N(C(=O)Nc2ccc(C#N)cc2)C2CCCC2)o1 (racemic) [Compound 190, 3-(4-cyanophenyl)-1-cyclopentyl-1-[1-(5-methyl-2-furyl)ethyl]urea]
500 to 1000 | Cc1ccc(C(C)N(C(=O)Nc2ccc(F)cc2)C2CCCC2)o1 (racemic) [Compound 191, 1-cyclopentyl-3-(4-fluorophenyl)-1-[1-(5-methyl-2-furyl)ethyl]urea]
< 100 | CC(c1cccc(C#N)c1)N(C(=O)Nc1ccc(Cl)cc1)C1CCC1 (racemic) [Compound 192, 3-(4-chlorophenyl)-1-[1-(3-cyanophenyl)ethyl]-1-cyclobutyl-urea]
100 to 500 | CCc1c(C)sc2c1CCN(C(=O)Nc1cc(C)cc(C)c1)C2c1ccccc1 (racemic) [Compound 194, N-(3,5-dimethylphenyl)-3-ethyl-2-methyl-7-phenyl-5,7-dihydro-4H-thieno[2,3-c]pyridine-6-carboxamide]
1000 to 5000 | CC(NC(=O)Nc1ccccc1)c1ccc(F)cc1 (racemic) [Compound 197, 1-[1-(4-fluorophenyl)ethyl]-3-phenyl-urea]
500 to 1000 | CC(NC(=O)Nc1ccc(Cl)cc1)c1ccc(Cl)s1 (racemic) [Compound 199, 1-(4-chlorophenyl)-3-[1-(5-chloro-2-thienyl)ethyl]urea]

Same assay, conditions: SK-OV-3 cell line, 24 h incubation, kynurenine in supernatant by LC-MS/MS; read-out: IC50 Ranges (ic50 values for inhibition of Kynurenine production)

IC50 [nM] | Structure (SMILES)
500 to 1000 | O=C(Nc1ccccc1)N(Cc1cccs1)C1CCCC1 [Compound 19, 1-cyclopentyl-3-phenyl-1-(2-thienylmethyl)urea]
